Assays:
[1] = test system: Carrageenan Rat Paw Edema; assay: Carrageenan Rat Paw Edema Test; format: in vivo, Male Sprague-Dawley rats; details: for Percent Inhibition at 100 mg/kg dose p.o.: 100 mg/kg p.o. 1 h before carrageenan, paw volume 4 h after carrageenan, relative to control; for ED35: oral, by regression analysis, read-out: ID35
Method: Carrageenan Rat Paw Edema Test
Male Sprague-Dawley rats (Charles River Laboratories) are weighed and food fasted overnight. The animals are then divided into four to six groups of six animals each according to body weights (average about 145 g) so that each group has about the same average body weight (within 10 g).
The following morning animals are dosed with the test compound and then placed in individual cages. For oral dosing, the drug is suspended in 0.5% methyl cellulose with 2% Tween 80, and delivered via stomach tube in a 5 ml volume.
Paw volumes (0 time) are determined on both hind paws with a mercury displacement device equipped with a transducer and digitizer. One hour after dosing the test compound, the animals are placed in a plastic restrainer and 50 ul of a 1% (w/w) carrageenan solution in 0.9% saline is injected into the ventral surface of the left rear paw. Four hours after the carrageenan injection, the paw volumes are again determined.
The results are expressed as percent inhibition of the mean paw volume of the test group relative to the control group. Statistical differences are determined by one way analysis of variance. ID35 values are determined by regression analysis.

rheumatoid arthritis = assay: Oral tablets in patients with rheumatoid arthritis; format: in vivo, patient; details: tablet, orally two times daily
Method: (§1) Tablets are prepared by conventional methods, such as mixing and direct compaction, formulated as follows: […]

osteoarthritis = assay: Oral tablets in patients with osteoarthritis; format: in vivo, patient; details: tablet, twice daily
Method: as §1

[2] = test system: rheumatoid arthritis or osteoarthritis; assay: Oral capsules in patients with rheumatoid arthritis or osteoarthritis; format: in vivo, patient; details: capsule, orally once a day
Method: Capsules are prepared by conventional methods, comprised as follows: […]

SMILES	Percent Inhibition at 100 mg/kg dose p.o. [1] [%]	ED35 [1] [mg/kg]	reduction of inflammation in rheumatoid arthritis patient (rheumatoid arthritis)	benefit in osteoarthritis patient (osteoarthritis)	reduction of symptomology in rheumatoid arthritis or osteoarthritis patient [2]
C#CCCCC(=O)c1cc(C(C)(C)C)c2c(c1)C(C)(C)CO2 [Compound 8C]	48.8	2.4	significantly reduces the inflammation	significant benefit	substantially reduces the symptomology
C#CC(O)CCC(=O)c1cc(C(C)(C)C)c2c(c1)C(C)(C)CO2 (stereo not drawn) [Compound 8D]	60.8	1.6	–	–	–
C#CCCCC(=O)c1cc(C(C)(C)C)c2c(c1)C(C)(C)C(O)O2 (stereo not drawn) [Compound 13C]	53.2	12.9	–	–	–

From patent publication US4849428A, “Cyclic anti-inflammatory derivatives of di-tert-butylphenol compounds, compositions and use” (The Procter & Gamble Company, priority 1987, dated 1989)
